This note sets out measurements from PubChem BioAssay AID1626 (SRMLSC, 2009).

For orientation: IC50 means the concentration needed to halve the response being measured. Usually IC90 stands for the concentration needed for an effect of 90%. A lower IC90 goes with greater potency. For orientation: CC50 means the concentration giving 50% cytotoxicity.

A value given as a limit tells only on which side of the number the result lay.

The subject of this assay is M. tuberculosis H37Rv growth inhibition. Nature of the assay: M. tuberculosis H37Rv growth inhibitors, H37Rv strain (AID 1626). The conditions noted are these: for IC90: measured here: IC90 against H37Rv; for CC50: measured here: Vero cell cytotoxicity.

As to `N#C/C(=C\c1c[nH]c2ccccc12)C(=O)Nc1ncc(Cc2ccc(Cl)cc2Cl)s1`, the IC50 is 11.7 µM, the concentration for an effect of 90% (IC90) turned out to be 13.5 µM and the CC50 is above 40 µM.

Regarding `O=C(Cc1ccc([N+](=O)[O-])cc1)Nc1cc(C(F)(F)F)cc(C(F)(F)F)c1`, the IC50 was 0.369 µM, the concentration for an effect of 90% (IC90) was above 100 µM and the CC50 was 20.8 µM.

`Cn1c(-c2ccc3c(c2)OCO3)cnc1NCc1cccc(Cl)c1`: the IC50 is 11.4 µM, the IC90 was found to be 13.1 µM and the CC50 was above 40 µM.

Take `c1ccc(-c2cc3c(N4CCN(c5ccccc5)CC4)ncnc3s2)cc1`: the IC50 was 11.3 µM and the IC90 was above 100 µM.

Consider `Oc1ccccc1-c1nc(/C=C/c2ccccc2)nn1-c1ccccc1`, for which the IC50 was 16.3 µM and the IC90 was above 100 µM.

Regarding `Cc1ccc(NC(=O)COc2ccc(-n3ccnc3)cc2)cc1Cl`, the IC50 was 3.82 µM and the IC90 turned out to be 12.2 µM.

Consider `O=c1[nH]c(-c2ccccn2)nc(C(F)(F)F)c1Br`, for which the IC50 is 0.487 µM, the IC90 stood at 1.02 µM and the CC50 was determined as 33.4 µM.

`CC(=O)c1cccc(NC(=O)/C=C/c2ccc([N+](=O)[O-])s2)c1`: the 50% inhibitory concentration (IC50) is 6.51 µM, the IC90 worked out at 57.4 µM and the CC50 is above 40 µM.

`COc1cc(OC)c2c(-c3ccccc3)cc(=O)oc2c1C(CCN1CCCC(C)C1)c1ccc2c(c1)OCO2` (stereo not given): the IC50 is 5.64 µM, the IC90 came out at 10.4 µM and the CC50 amounted to 24.3 µM.

On to `COc1ccc(NC(=O)c2nc[nH]c2C(=O)N[C@@H](C)c2ccccc2)cc1`, for which the IC50 was 5.7 µM, the IC90 was 22.4 µM and the CC50 was above 40 µM.

Consider `Cc1cc(C)cc(NC(=O)c2ccc([N+](=O)[O-])o2)c1`, for which the IC50 is 9.59 µM, the IC90 was determined as 22.6 µM and the CC50 came out at 9.81 µM.

With `O=C1c2cccc3c([N+](=O)[O-])ccc(c23)C(=O)N1Cc1cccnc1`, the IC50 is 2.02 µM, the IC90 came to 3.69 µM and the cytotoxic concentration (CC50) came out at 6.25 µM.

Consider `CC(C)c1ccc(NC(=O)NC2CCCCC2)cc1`, for which the IC50 is 6.27 µM and the IC90 was above 100 µM.

Turning to `Nc1nc(F)nc2c1ncn2[C@@H]1O[C@H](CO)[C@@H](O)[C@H]1O`, the IC50 was 2.65 µM, the IC90 was determined as 3.95 µM and the 50% cytotoxic concentration (CC50) is 0.218 µM.

Take `O=C(CCl)N(c1ccccc1)c1ccccc1`: the IC50 was 5.73 µM, the IC90 worked out at 17.6 µM and the CC50 amounted to 1.69 µM.

In the case of `Cc1nc(N/C(N)=N/S(=O)(=O)c2ccc([N+](=O)[O-])cc2)nc2ccccc12`, the IC50 is 9.12 µM, the 90% effect concentration (IC90) is above 100 µM and the CC50 is above 40 µM.

In the case of `COc1ccc(N2CCN(Cc3nc(N)nc(Nc4ccc(C)c(Cl)c4)n3)CC2)cc1`, the IC50 was 0.546 µM, the IC90 came out at 1.71 µM and the CC50 is above 40 µM.

For `CCCCc1ccc(C2C3=C(CC(C)(C)CC3=O)NC3=C2C(=O)c2ccccc23)cc1` (stereo not given), the IC50 was 3.09 µM, the IC90 was above 100 µM and the CC50 was above 40 µM.

For the compound `Cc1cccc(N2CCN(C(=O)/C=C/c3cccs3)CC2C)c1` (stereo not given), the IC50 was 23.4 µM and the concentration for an effect of 90% (IC90) amounted to 26.5 µM.

As for `CCOC(=O)c1ccc(NC(=O)CCc2ccc(CC)o2)cc1`, the half-inhibitory concentration (IC50) is 2.25 µM and the IC90 amounted to 17.2 µM.

Regarding `COc1ccc(-c2nsc(SCC(=O)NCC3CCCO3)n2)cc1` (stereo not given), the IC50 was 2.25 µM and the IC90 was determined as 5.2 µM.

`O=C(NCCCN1CCOCC1)c1ccc([N+](=O)[O-])cc1[N+](=O)[O-]`: the IC50 is 6.25 µM and the IC90 was above 100 µM.

As to `CC/C(=C(\c1ccc(O)cc1)c1ccc(OCCN(C)C)cc1)c1ccccc1`, the IC50 is 8.76 µM, the IC90 worked out at 12.3 µM and the CC50 is 14.1 µM.

Take `CC(C)(C)NC(=O)COC(=O)c1snc(C(=O)NC2CCCCC2)c1N`: the IC50 was 1.84 µM, the IC90 turned out to be 3.78 µM and the CC50 was above 40 µM.

Take `N#Cc1c(SCC(N)=O)nsc1SCc1ccccc1Cl`: the 50% inhibitory concentration (IC50) is 12.1 µM and the IC90 worked out at 14.5 µM.

Regarding `COc1ccc(-c2cc(C(=O)Nc3nc4ccccc4s3)c3ccccc3n2)cc1OC`, the IC50 is 4.02 µM and the IC90 is above 100 µM.

For `CC1CCN(c2nc(/C=C/c3ccccc3)nc3ccccc23)CC1`, the IC50 was 10.1 µM, the IC90 was 12.8 µM and the CC50 was above 40 µM.

On to `Cc1ccc(N/C(N)=N/c2nc(C)cc(N3CCCCC3)n2)c(C)c1`, for which the IC50 is 2.17 µM, the IC90 came to 3.68 µM and the CC50 was determined as 9.19 µM.

For the compound `COCCCNC(=O)COC(=O)c1ccc(-c2nc3ccccc3s2)s1`, the concentration for half-maximal inhibition (IC50) is 14.4 µM, the IC90 was 26.9 µM and the half-maximal cytotoxic concentration (CC50) is above 40 µM.

Regarding `Cc1cc(C(=O)c2ccc(C(C)(C)C)cc2)c(NC(=O)CCl)s1`, the IC50 is 19.5 µM, the IC90 is above 100 µM and the CC50 came to 27.2 µM.

As to `COCc1cc(S(=O)c2ccc(Cl)cc2)nc(C)n1` (stereo not given), the IC50 is 15.1 µM, the IC90 was determined as 24.3 µM and the cytotoxic concentration (CC50) is 22.1 µM.

As for `CCOC(=O)c1cc(COc2cc(Cl)cc(Cl)c2)on1`, the IC50 was 3.01 µM and the IC90 was 21.6 µM.

Take `Cc1cc(Cl)ccc1OCCCC(=O)NO`: the IC50 is 28.6 µM, the IC90 is above 100 µM and the CC50 was 35.7 µM.

The compound `CCOC(=O)c1ccc(NC(=O)CCc2c(C)nc3ncnn3c2C)cc1` gave an IC90 above 100 µM.

In turn, `CCc1c(C#N)c(N)nc(SCC(=O)OCc2ccccc2)c1C#N` came in with an IC90 above 100 µM.

Turning to `Cc1nc(N2CCN(c3ccccn3)CC2)c2c(C)c(C(=O)Nc3ccccc3F)sc2n1`, the IC50 was 8.96 µM, the IC90 is above 100 µM and the CC50 is above 40 µM.

On to `CCCOC(=O)c1ccc(NC(=O)c2cnccn2)cc1`, for which the IC50 is 15 µM and the IC90 was above 100 µM.

Take `O=Cc1ccc2noc(-c3ccc(F)cc3)c2c1`: the IC90 is above 100 µM.

For `O=C(Nc1nnc(C2=COCCO2)o1)c1ccc(Cl)cc1`, the 50% inhibitory concentration (IC50) is 2.71 µM, the IC90 came out at 4.41 µM and the CC50 was above 40 µM.

For `O=C(Nc1ccc(Cl)cc1)Nc1csc([N+](=O)[O-])c1`, the half-inhibitory concentration (IC50) was 79.1 µM and the IC90 was above 100 µM.

For the compound `C=C1C(=O)[C@@]23[C@H](O)C[C@@H]4C(C)(C)CC[C@H](O)[C@@]4(C)[C@@H]2CC[C@@H]1[C@H]3O`, the IC50 is 8.62 µM, the IC90 was determined as 14.6 µM and the CC50 was found to be 5.78 µM.

As for `Cc1ccc(Cn2c(NC(=O)c3ccco3)nc3ccccc32)cc1`, the IC50 was 4.08 µM, the IC90 is above 100 µM and the 50% cytotoxic concentration (CC50) is above 40 µM.

As to `COc1ccc(NC(=O)CSCc2ccc(C)cc2)cc1`, the IC50 was 26.5 µM and the IC90 was above 100 µM.

With `Cc1nc2cc(C(=O)OCC(=O)NC34CC5CC(CC(C5)C3)C4)ccc2n1-c1ccccc1`, the IC50 is 7.9 µM and the IC90 was 12.1 µM.

As to `O=C(c1coc2ccc(O)cc12)C1CC1`, the IC50 is 27.5 µM and the IC90 is above 100 µM.

For the compound `CCOC(=O)c1cnc(Nc2nc3ccccc3o2)nc1C`, the IC50 is 20.4 µM, the IC90 is above 100 µM and the CC50 worked out at 22.5 µM.

For `O=C(/C=C/c1ccc(Cl)cc1Cl)c1cccnc1`, the half-maximal inhibitory concentration (IC50) was 2.97 µM, the 90% effect concentration (IC90) was 3.35 µM and the CC50 was determined as 30.6 µM.

In the case of `COc1ccc(-c2oc3ccc(N4CCOCC4)cc3c2C#CC2(O)CCCCC2)cc1`, the half-maximal cytotoxic concentration (CC50) was above 40 µM.

On to `Cc1ccc(-c2nnc(N3CCN(C(=O)c4ccco4)CC3)c3ccccc23)cc1`, for which the IC50 was 7.44 µM and the concentration for an effect of 90% (IC90) came to 13.8 µM.

In the case of `CC1CCCN(c2ccc([N+](=O)[O-])s2)C1` (stereo not given), the half-maximal inhibitory concentration (IC50) was 5.81 µM and the IC90 came out at 6.36 µM.

Turning to `COc1ccc(NCc2nc3ccccc3n2CCOc2ccc(C)cc2)cc1`, the half-maximal inhibitory concentration (IC50) was 17.8 µM, the IC90 was 26.2 µM and the CC50 turned out to be 26.2 µM.

Consider `O=C(CCc1ccc(Oc2cc([N+](=O)[O-])cc([N+](=O)[O-])c2)cc1)N1CCCCCC1`, for which the IC50 is 7.53 µM, the IC90 was 15.6 µM and the CC50 turned out to be 37.2 µM.

Take `CCCOC(=O)c1ccc(NC(=O)C(=O)NCC2CCCO2)cc1` (stereo not given): the IC50 was 38.7 µM and the IC90 is above 100 µM.

As for `Cc1ccc(C(=O)Nc2nnc(-c3ccco3)o2)cc1C`, the IC50 is below 0.195 µM, the IC90 was above 100 µM and the CC50 is above 40 µM.

For the compound `O=C(Nc1ncc(Cc2ccccc2)s1)c1cccs1`, the IC50 was 49 µM, the IC90 is above 100 µM and the CC50 was above 40 µM.

As for `CCOC(=O)C1=C(CC)Nc2ccccc2N=C1NC(=O)Nc1ccc(Cl)c(Cl)c1`, the IC50 is 2.73 µM, the IC90 is 3.1 µM and the CC50 is 10.3 µM.

For `CCNC(=O)COC(=O)c1ccc(-c2nc3ccccc3s2)s1`, the 50% inhibitory concentration (IC50) is 7.63 µM, the IC90 was 15 µM and the CC50 was above 40 µM.

`CSc1ccc(/C=C/C(=O)c2ccc(NC(C)=O)cc2)cc1`: the half-maximal inhibitory concentration (IC50) is 28.4 µM and the IC90 was above 100 µM.

Take `Brc1c(-c2ccc3c(c2)OCO3)nc2ncccn12`: the IC50 was 2.23 µM, the IC90 worked out at 7.15 µM and the CC50 is above 40 µM.

In the case of `CC(C)=CCN1CCN(CCC2=C(C)CCCC2(C)C)CC1CCO` (stereo not given), the IC50 was 5.88 µM and the IC90 came to 6.66 µM.

With `Cc1ccc(Nc2c(-c3ccccn3)nc3cccc(C)n23)cc1`, the IC50 was 2.72 µM, the IC90 was 3.06 µM and the 50% cytotoxic concentration (CC50) was found to be 1.18 µM.

In turn, `Cc1cc(C)cc(OCc2nnc(SCC(=O)OC(C)C)o2)c1` had an IC90 above 100 µM.

For the compound `COc1ccc(N/C=C/C(=O)c2sc(-c3ccccc3)nc2C)cc1`, the IC50 was 69.2 µM, the IC90 is above 100 µM and the CC50 is above 40 µM.

On to `O=C(NCCN1CCOCC1)c1ccc([N+](=O)[O-])cc1[N+](=O)[O-]`, for which the IC50 was 2.11 µM and the concentration for an effect of 90% (IC90) is 3.4 µM.
